The term inhibition denotes the share of the control response that was lost under treatment. Read a low inhibition as a response near the control. Usually pKi stands for −log10 of the Ki, conventionally taken in molar units. Lower therefore signals a high Ki.

pKi: −log10 of the molar value.

The values that follow come from ChEMBL document CHEMBL1156696, “Structure activity relationships of quinoline-containing c-Met inhibitors” (Eur J Med Chem, 2008).

Assay [1] deals with T1, Hepatocyte growth factor receptor (Homo sapiens, UniProt P08581). As to the kind of experiment: Inhibition of human activated c-Met at 1 uM by PK/LDH coupled kinetic assay.
Assay [2] addresses T1, Hepatocyte growth factor receptor. Description: Inhibition of human activated c-Met by PK/LDH coupled kinetic assay.

T1 sequence (P08581 whole entry): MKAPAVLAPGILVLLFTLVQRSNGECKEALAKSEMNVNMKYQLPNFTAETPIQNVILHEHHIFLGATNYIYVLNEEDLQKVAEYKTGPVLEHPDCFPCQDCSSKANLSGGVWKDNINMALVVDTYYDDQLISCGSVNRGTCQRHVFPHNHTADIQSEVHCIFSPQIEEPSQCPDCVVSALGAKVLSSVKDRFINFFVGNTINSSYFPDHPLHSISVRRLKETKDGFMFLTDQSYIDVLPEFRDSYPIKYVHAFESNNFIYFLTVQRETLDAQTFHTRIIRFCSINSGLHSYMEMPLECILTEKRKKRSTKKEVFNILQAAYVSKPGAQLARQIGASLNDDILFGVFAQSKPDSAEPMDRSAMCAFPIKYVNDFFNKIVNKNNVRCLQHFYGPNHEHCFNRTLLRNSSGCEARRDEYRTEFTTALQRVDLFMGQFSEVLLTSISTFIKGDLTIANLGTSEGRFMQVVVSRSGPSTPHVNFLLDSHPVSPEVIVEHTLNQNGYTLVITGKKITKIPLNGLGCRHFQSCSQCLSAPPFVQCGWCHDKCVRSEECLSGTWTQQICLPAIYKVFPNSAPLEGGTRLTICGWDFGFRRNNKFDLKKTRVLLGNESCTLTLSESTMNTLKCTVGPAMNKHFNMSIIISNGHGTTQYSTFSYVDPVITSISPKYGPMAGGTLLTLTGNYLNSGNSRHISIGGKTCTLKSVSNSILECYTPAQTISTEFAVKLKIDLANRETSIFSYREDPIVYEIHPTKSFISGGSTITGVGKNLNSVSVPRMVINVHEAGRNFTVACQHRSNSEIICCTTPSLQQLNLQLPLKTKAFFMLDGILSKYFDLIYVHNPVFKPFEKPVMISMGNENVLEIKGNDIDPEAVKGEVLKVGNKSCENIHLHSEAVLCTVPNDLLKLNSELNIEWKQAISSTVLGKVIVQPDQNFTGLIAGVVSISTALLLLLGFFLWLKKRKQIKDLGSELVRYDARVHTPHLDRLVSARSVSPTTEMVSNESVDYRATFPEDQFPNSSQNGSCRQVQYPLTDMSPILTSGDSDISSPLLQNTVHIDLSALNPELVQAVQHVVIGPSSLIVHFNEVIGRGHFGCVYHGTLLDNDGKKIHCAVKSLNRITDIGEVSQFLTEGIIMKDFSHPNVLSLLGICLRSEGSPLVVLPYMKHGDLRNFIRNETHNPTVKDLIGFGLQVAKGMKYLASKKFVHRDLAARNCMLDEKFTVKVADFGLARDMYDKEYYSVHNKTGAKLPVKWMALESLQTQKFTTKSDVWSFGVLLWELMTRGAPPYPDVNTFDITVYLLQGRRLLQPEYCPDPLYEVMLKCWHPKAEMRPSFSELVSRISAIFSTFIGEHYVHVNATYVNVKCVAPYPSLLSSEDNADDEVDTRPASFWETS

In turn, `COc1cc2nccc(Oc3ccc(N)nc3)c2cc1OC` had an inhibition in assay [1] of 2%.

Regarding `COc1cc2nccc(Oc3ccc(NC(=O)N4CCNCC4)nc3)c2cc1OC`, in assay [2], the pKi was under 4.52.
